{"source": "patent US12472177B2", "about": "“Bicyclic compounds and methods for their use in treating Pitt Hopkins syndrome” (NEUREN PHARMACEUTICALS LIMITED, priority 2019, dated 2025)", "key": {"[1]": {"assay": "Delivery of cG-2-AllylP into the brain after oral administration (CSF, blood, brain exposure)", "type": "in vivo, Sprague Dawley rats", "conditions": "rat", "protocol": "In an in vivo study, male Sprague Dawley rats (aged 14 weeks) received a single dose of cG-2-AllylP, either 100 mg/kg or 200 mg/kg by oral gavage. Cerebrospinal fluid (CSF) and whole blood were collected at 1.5 and 4 hours postdose, and brain tissue was collected at 4 hours postdose to evaluate cG-2-AllylP exposure."}, "[2]": {"system": "Tcf4^+/− mice", "assay": "Fear conditioning (time freezing)", "type": "in vivo, mouse", "parameters": "key to Fear Conditioning: Tukey’s Multiple Comparisons Test Summary: **** = p < 0.00001; ns = not significant", "protocol": "(§1) In vivo behavioral studies were conducted in Tcf4^+/− mutant and wildtype littermate control (WT) mice by Gen.DDI (Santiago, Chile). Littermate controls consist of the genotypes Tcf4^+/+. All Tcf4 mutant mice used were heterozygous for the Tcf4 mutation because homozygous mutations of Tcf4 result in embryonic to postnatal day 1 lethality. Ten mice per treatment group, 14 weeks of age, were used for behavioral experiments. Experiments were conducted in line with the requirements of the UK Animals (Scientific Procedures) Act, 1986. The mice were housed in plastic cages (35×30×12 cm), 5 in each and habituated to the animal facilities for at least a week before commencing the test. The room temperature (21° C.±2° C.), relative humidity (55%±5%), a 12-hour light-dark cycle (lights on 7 AM to 7 PM), and air exchange were automatically controlled. The animals had free access to commercial food pellets and water. Testing was performed during the light phase of the circadian cycle, with the order of testing being determined by the principle of conducting the most stressful tests last. Assays were designed to reproduce and expand on the original behavioral characterization of Tcf4^+/− mice. Tcf4^+/− and WT control mice were treated for 6 weeks prior to testing and tested 30 minutes following a dose of cG-2-AllylP, as described in Table 2 below.\nFear conditioning to either an event or a context represents a form of associative learning that has been well studied in many species. In mice, fear is often shown as stopping movement, also known as freezing behavior. Freezing is adaptive for prey species because predators often locate moving prey. The dependent measure used in contextual (delay) fear conditioning is a freezing response that takes place following pairing of an unconditioned stimulus (foot shock), with a conditioned stimulus (CS; e.g., an audible tone), a particular context and/or such a cue. If in a conditioning context one administers a foot shock that is paired with a tone, there will be learning not only to the tone, but also to the context.\nContextual fear conditioning is a basic conditioning procedure. It involves taking an animal and placing it in a novel environment, providing an aversive stimulus, and then removing it. […] Freezing is a response to fear, which has been defined as “absence of movement except for respiration.” This freezing behavior may last from seconds to minutes depending on the strength of the aversive stimulus, the number of presentations, and the degree of learning achieved by the subject.\nAnimals with the Tcf4^+/− mutation show less freezing behavior than wild type mice. This maladaptive behavior can have serious consequences. Therefore, to determine if NNZ-2591 (cG-2-AllylP) can restore normal fear conditioning in Tcf4^+/− mice, we carried out a series of studies.\nThe percent of time spent in freezing over a 5-minute test period is shown on the vertical axis of FIG. 4. Animals and their treatments are shown on the horizontal axis."}, "[3]": {"system": "Tcf4^+/− mice", "assay": "Hind limb force (motor performance)", "type": "in vivo, mouse", "parameters": "key to Test of Force (Hind Limb): Tukey’s Muliple Comparison Test Summary: **** = p < 0.00001; ns = not significant", "protocol": "as §1\nHind limb force is an important measure of the ability of a mouse to jump away from a predator. However, animals with the Tcf4^+/− mutation have substantially lower ability to jump away from a predator, making this mutation very serious and potentially life threatening. Hind limb force is also considered a surrogate for motor function in humans. To determine if NNZ-2591 (cG-2-AllylP) might provide a helpful treatment for this condition, we carried out a series of studies in which we measured hind limb force."}, "[4]": {"conditions": "single oral dose 100 mg/kg, 1.5 h postdose"}, "[5]": {"conditions": "single oral dose 100 mg/kg, 4 h postdose"}, "[6]": {"conditions": "single oral dose 200 mg/kg, 1.5 h postdose"}, "[7]": {"conditions": "single oral dose 200 mg/kg, 4 h postdose"}, "[8]": {"conditions": "Tcf4^+/− + cG-2-AllylP (100 mg/kg) vs Tcf4^+/− + cG-2-AllylP (200 mg/kg)"}, "[9]": {"conditions": "Tcf4^+/− + cG-2-AllylP (100 mg/kg) vs WT + cG-2-AllylP (200 mg/kg)"}, "[10]": {"conditions": "Tcf4^+/− + vehicle vs Tcf4^+/− + cG-2-AllylP (100 mg/kg)"}, "[11]": {"conditions": "Tcf4^+/− + vehicle vs Tcf4^+/− + cG-2-AllylP (200 mg/kg)"}, "[12]": {"conditions": "Tcf4^+/− + vehicle vs WT + cG-2-AllylP (100 mg/kg)"}, "[13]": {"conditions": "Tcf4^+/− + vehicle vs WT + cG-2-AllylP (200 mg/kg)"}, "[14]": {"conditions": "WT + cG-2-AllylP (100 mg/kg) vs Tcf4^+/− + cG-2-AllylP (100 mg/kg)"}, "[15]": {"conditions": "WT + cG-2-AllylP (100 mg/kg) vs Tcf4^+/− + cG-2-AllylP (200 mg/kg)"}, "[16]": {"conditions": "WT + cG-2-AllylP (100 mg/kg) vs WT + cG-2-AllylP (200 mg/kg)"}, "[17]": {"conditions": "WT + cG-2-AllylP (200 mg/kg) vs Tcf4^+/− + cG-2-AllylP (200 mg/kg)"}, "[18]": {"conditions": "WT + vehicle vs Tcf4^+/− + cG-2-AllylP (100 mg/kg)"}, "[19]": {"conditions": "WT + vehicle vs Tcf4^+/− + cG-2-AllylP (200 mg/kg)"}, "[20]": {"conditions": "WT + vehicle vs WT + cG-2-AllylP (100 mg/kg)"}, "[21]": {"conditions": "WT + vehicle vs WT + cG-2-AllylP (200 mg/kg)"}, "[22]": {"conditions": "WT mice, 100 mg/kg oral BID 6 weeks"}, "[23]": {"conditions": "WT mice, 200 mg/kg oral BID 6 weeks"}}}
{"molecule": "C=CC[C@]12CCCN1C(=O)CNC2=O", "note": "[cG-2-AllylP, (8aS)-Allyl-hexahydropyrrolo[1,2-a]pyrazine-1,4-dione]", "values": [{"measurement": "Dose dependence of concentration in blood, CSF and brain", "setting": "[1]; 100 vs 200 mg/kg single oral dose, blood and CSF at 1.5 h, blood, CSF and brain at 4 h", "result": "approximately proportional increase"}, {"measurement": "Concentration in blood compared with brain tissue", "setting": "[1]; 4 hours post dose", "result": "approximately equivalent"}, {"measurement": "Concentration of cG-2-AllylP in Blood", "setting": "[1]; [4]", "result": 58500, "unit": "ng/mL"}, {"measurement": "Concentration of cG-2-AllylP in CSF", "setting": "[1]; [4]", "result": 40400, "unit": "ng/mL"}, {"measurement": "Concentration of cG-2-AllylP in Blood", "setting": "[1]; [5]", "result": 15600, "unit": "ng/mL"}, {"measurement": "Concentration of cG-2-AllylP in Brain", "setting": "[1]; [5]", "result": 22600, "unit": "ng/mL"}, {"measurement": "Concentration of cG-2-AllylP in CSF", "setting": "[1]; [5]", "result": 11000, "unit": "ng/mL"}, {"measurement": "Concentration of cG-2-AllylP in Blood", "setting": "[1]; [6]", "result": 116000, "unit": "ng/mL"}, {"measurement": "Concentration of cG-2-AllylP in CSF", "setting": "[1]; [6]", "result": 82200, "unit": "ng/mL"}, {"measurement": "Concentration of cG-2-AllylP in Blood", "setting": "[1]; [7]", "result": 34200, "unit": "ng/mL"}, {"measurement": "Concentration of cG-2-AllylP in Brain", "setting": "[1]; [7]", "result": 37000, "unit": "ng/mL"}, {"measurement": "Concentration of cG-2-AllylP in CSF", "setting": "[1]; [7]", "result": 24700, "unit": "ng/mL"}, {"measurement": "Fear Conditioning: Tukey’s Multiple Comparisons Test Summary", "setting": "[2]; [8]", "result": "*** (*** = p < 0.001)"}, {"measurement": "Fear Conditioning: Tukey’s Multiple Comparisons Test Summary", "setting": "[2]; [9]", "result": "**** (**** = p < 0.0001)"}, {"measurement": "Fear Conditioning: Tukey’s Multiple Comparisons Test Summary", "setting": "[2]; [10]", "result": "**** (**** = p < 0.0001)"}, {"measurement": "Fear Conditioning: Tukey’s Multiple Comparisons Test Summary", "setting": "[2]; [11]", "result": "**** (**** = p < 0.0001)"}, {"measurement": "Fear Conditioning: Tukey’s Multiple Comparisons Test Summary", "setting": "[2]; [12]", "result": "**** (**** = p < 0.0001)"}, {"measurement": "Fear Conditioning: Tukey’s Multiple Comparisons Test Summary", "setting": "[2]; [13]", "result": "**** (**** = p < 0.0001)"}, {"measurement": "Time spent in freezing behavior over a 5-minute test period", "setting": "[2]; Tcf4^+/− mice, 100 mg/kg oral BID 6 weeks, 100 mg/kg", "result": "improved but remained significantly different to Wild Type"}, {"measurement": "Behavior Normalized to WildType Levels: Fear Con", "setting": "[2]; Tcf4^+/− mice, 200 mg/kg", "result": "✓"}, {"measurement": "Fear Conditioning: Tukey’s Multiple Comparisons Test Summary", "setting": "[2]; [14]", "result": "ns"}, {"measurement": "Fear Conditioning: Tukey’s Multiple Comparisons Test Summary", "setting": "[2]; [15]", "result": "nx"}, {"measurement": "Fear Conditioning: Tukey’s Multiple Comparisons Test Summary", "setting": "[2]; [16]", "result": "ns"}, {"measurement": "Fear Conditioning: Tukey’s Multiple Comparisons Test Summary", "setting": "[2]; [17]", "result": "ns"}, {"measurement": "Fear Conditioning: Tukey’s Multiple Comparisons Test Summary", "setting": "[2]; [18]", "result": "* (* = p < 0.05)"}, {"measurement": "Fear Conditioning: Tukey’s Multiple Comparisons Test Summary", "setting": "[2]; [19]", "result": "ns"}, {"measurement": "Fear Conditioning: Tukey’s Multiple Comparisons Test Summary", "setting": "[2]; [20]", "result": "ns"}, {"measurement": "Fear Conditioning: Tukey’s Multiple Comparisons Test Summary", "setting": "[2]; [21]", "result": "ns"}, {"measurement": "Time spent in freezing behavior over a 5-minute test period", "setting": "[2]; [22]", "result": "about the same amount of time in freezing behavior as did vehicle-treated WT mice"}, {"measurement": "Time spent in freezing behavior over a 5-minute test period", "setting": "[2]; [23]", "result": "about the same amount of time in freezing behavior as did vehicle-treated WT mice"}, {"measurement": "Test of Force (Hind Limb): Tukey’s Muliple Comparison Test Summary", "setting": "[3]; [8]", "result": "ns"}, {"measurement": "Test of Force (Hind Limb): Tukey’s Muliple Comparison Test Summary", "setting": "[3]; [9]", "result": "ns"}, {"measurement": "Test of Force (Hind Limb): Tukey’s Muliple Comparison Test Summary", "setting": "[3]; [10]", "result": "**** (**** = p <0.00001)"}, {"measurement": "Test of Force (Hind Limb): Tukey’s Muliple Comparison Test Summary", "setting": "[3]; [11]", "result": "**** (**** = p <0.00001)"}, {"measurement": "Test of Force (Hind Limb): Tukey’s Muliple Comparison Test Summary", "setting": "[3]; [12]", "result": "**** (**** = p <0.00001)"}, {"measurement": "Test of Force (Hind Limb): Tukey’s Muliple Comparison Test Summary", "setting": "[3]; [13]", "result": "**** (**** = p <0.00001)"}, {"measurement": "Behavior Normalized to WildType Levels: Force", "setting": "[3]; Tcf4^+/− mice, 100 mg/kg", "result": "✓"}, {"measurement": "Hind limb force", "setting": "[3]; Tcf4^+/− mice, 100 mg/kg oral BID 6 weeks", "result": "nearly identical to those produced by WT mice"}, {"measurement": "Behavior Normalized to WildType Levels: Force", "setting": "[3]; Tcf4^+/− mice, 200 mg/kg", "result": "✓"}, {"measurement": "Hind limb force", "setting": "[3]; Tcf4^+/− mice, 200 mg/kg oral BID 6 weeks", "result": "nearly identical to those produced by WT mice"}, {"measurement": "Test of Force (Hind Limb): Tukey’s Muliple Comparison Test Summary", "setting": "[3]; [14]", "result": "ns"}, {"measurement": "Test of Force (Hind Limb): Tukey’s Muliple Comparison Test Summary", "setting": "[3]; [15]", "result": "ns"}, {"measurement": "Test of Force (Hind Limb): Tukey’s Muliple Comparison Test Summary", "setting": "[3]; [16]", "result": "ns"}, {"measurement": "Test of Force (Hind Limb): Tukey’s Muliple Comparison Test Summary", "setting": "[3]; [17]", "result": "ns"}, {"measurement": "Test of Force (Hind Limb): Tukey’s Muliple Comparison Test Summary", "setting": "[3]; [18]", "result": "ns"}, {"measurement": "Test of Force (Hind Limb): Tukey’s Muliple Comparison Test Summary", "setting": "[3]; [19]", "result": "ns"}, {"measurement": "Test of Force (Hind Limb): Tukey’s Muliple Comparison Test Summary", "setting": "[3]; [20]", "result": "ns"}, {"measurement": "Test of Force (Hind Limb): Tukey’s Muliple Comparison Test Summary", "setting": "[3]; [21]", "result": "ns"}, {"measurement": "Hind limb force", "setting": "[3]; [22]", "result": "about the same levels of force as vehicle-treated WT mice"}, {"measurement": "Hind limb force", "setting": "[3]; [23]", "result": "about the same levels of force as vehicle-treated WT mice"}]}
